Results taken from US20200022936A1, “COMBINATIONS OF DICLOFENAC, H2 RECEPTOR ANTAGONISTS AND ALKALI METAL BICARBONATES FOR THE TREATMENT OF PAIN AND INFLAMMATION” (priority 2017, published 2020).

Assay: in vivo
Design: species or system Wistar rats
Details: male, Wistar, rat, po
Excerpt: The primary objective of the test was to compare the pharmacokinetics of diclofenac potassium when used as a single active compound with diclofenac potassium in combination with famotidine and/or potassium bicarbonate. In this experimental study, the aim was to observe how the addition of potassium bicarbonate to diclofenac and famotidine would change the pharmacokinetic properties of diclofenac potassium when diclofenac potassium is given alone or in combination with famotidine and/or potassium bicarbonate.
Male Wistar rats (240-260 g) were used in the study. The rats were maintained in an air-conditioned animals quarter at a temperature of 22±2° C. and a relative humidity of 50±10%. Food and water were allowed ad libitum. The animals were acclimatized to the facilities for five days, and then fasted with free access to water for 12 h prior to the experiment. All the animals were housed under similar conditions.
Bioavailability and pharmacokinetics of diclofenac were studied in all the normal state of rats following an oral administration of 1 mg/kg diclofenac potassium, 0.4 mg/kg famotidine and 0.72 mg/kg or 0.36 mg/kg potassium bicarbonate in different occasions. Each rat was further subjected to similar studies after administration of diclofenac potassium and/or diclofenac in combination with famotidine. A total of 30 rats were used in the study divided into 5 groups, each group was administered; diclofenac alone, or 4 different combinations of diclofenac as outlined below.
Six male and/or female rats per group were lavaged with 1 mg/kg Diclofenac potassium and combinations at a dosing volume of 2 ml/kg. Blood (0.2 ml) was taken from the tail vein prior to administration of test substances (0 h) and after 0.083, 0.167, 0.25, 0.5, 1, 2, 4, 8 and 12 h.
Blood samples were collected in tubes containing %5 Na2-EDTA and kept on ice until 50 ul dichloromethane was added and they were centrifuged at 7000×g for 5 min at 4° C. and supernatants were collected for LC/MSMS analysis.

Cmax: 1.26 µg/mL | Tmax of diclofenac: 15 min | AUC(0-t) (1 mg/kg): 7.51 µg·h/mL | Cmax (1 mg/kg): 1.262 ± 4.8e-05 µg/mL | Tmax (1 mg/kg): 15 min | Blood Concentrations of Diclofenac Potassium (1 mg/kg, 0.083 h): 1.096 ± 0.054 | Blood Concentrations of Diclofenac Potassium (1 mg/kg, 0.25 h): 1.262 ± 0.048 | Blood Concentrations of Diclofenac Potassium (1 mg/kg, 0.5 h): 1.078 ± 0.137 | Blood Concentrations of Diclofenac Potassium (1 mg/kg, 1 h): 0.943 ± 0.015 | Blood Concentrations of Diclofenac Potassium (1 mg/kg, 2 h): 0.600 ± 0.159 | Blood Concentrations of Diclofenac Potassium (1 mg/kg, 4 h): 0.600 ± 0.015 | Blood Concentrations of Diclofenac Potassium (1 mg/kg, 8 h): 0.578 ± 0.033 | Blood Concentrations of Diclofenac Potassium (1 mg/kg, 12 h): 0.486 ± 0.092
Structure (SMILES): O=C(O)Cc1ccccc1Nc1c(Cl)cccc1Cl [Diclofenac-K, 2[(2,6-dichlorophenyl)amino]benzeneacetic acid]
